In assay [1] the test system is HL60 MDR tumor. The experiment in a line: tumor volume of HL60 MDR tumor implanted in nude mice. The assay is classed as in vivo. Conditions: for tumor volume: 200 ug Etomoxir, 2.5 mM 2-Deoxy-D-glucose. The source says:
Tumor implantation. Mice were purchased from the Animal Production Program of National Cancer Institute, Frederick, Md. The animals used were Athymic Ncr-nu/nu (strain code 01B74). HL60 MDR cells were harvested and reconstituted at 1 million cells per 100 microliters of phosphate buffered saline. One million tumor cells per injection site were implanted subcutaneously on two sites of the animal's back. Treatments began at exactly seven days post tumor implantation. Tumor size/volume was monitored twice weekly using measurement calipers, with the formula Tumor Volume=π×(short diameter)^2×(long diameter)/6.
Mice experiments with fatty acid metabolism and glucose metabolism inhibitors. Fatty acid metabolism inhibitors were exemplified by etomoxir at 200 micrograms/day. Glucose metabolism inhibitors were exemplified by 2-deoxy-D-glucose at 2.5 mM in 100 microliters daily. The combination was administered daily, etomoxir at 200 micrograms and 2-deoxy-D-glucose at 2.5 mM in 100 microliters. All drugs were administered intra-peritoneally. Fluorouracil, at 20 mg per kilogram mouse, was injected intra-peritoneally once a week
HL60 MDR human leukemia cells were cultured and implanted in nude mice as described above under “Materials and Methods”. The mice were given 200 ug of Etomoxir, 2.5 mM 2-Deoxy-D-glucose, or both 200 ug of Etomoxir and 2.5 mM 2-Deoxy-D-glucose given daily by IP injection. Treatment began exactly one week after tumor implantation.
Mice were purchased from National Cancer Institute, Animal Production Program (Frederick, Md.). The animals used were Athymic Ncr-nu/nu (Strain code 01B74). HL60 MDR cells were harvested and reconstituted at 1 million cells per 100 microliters of phosphate buffered saline. One million tumor cells/per injection site were implanted subcutaneously on two sites of the animal's back. Treatments began at exactly seven days post tumor implantation. Tumor size/volume was monitored twice weekly using measurement calipers with the formula for Tumor Volume=π(short diameter)^2(long diameter)/(divided by )6. […]

Assay [2] concerns RD cells (rhabdomyosarcoma cells-not drug resistant). The experiment in a line: percent death of RD cells (flow cytometry, live versus dead). The assay is classed as cell-based. For orientation: Flow cytometry measures light scatter and fluorescence of single cells or particles in a stream.
Description: The cells were cultured at a concentration of 0.5 to 1 million cells per ml. Cells were untreated or treated with or 2-deoxy-D-glucose and/or etomoxir and/or antibodies to UCP2 and used at dilutions or concentrations as indicated on the figure. The cells were cultured in the presence or absence of etomoxir at 100 micrograms/ml for 24 hours followed by treatment with antibody as indicated for an additional 24 or 48 hours (i.e. totals of 48 hours or 72 hours respectively). Cells were harvested and analyzed by flow cytometry. Each dot on the dot plot represents one cell. Five thousand cells were assessed for forward scatter (FS), as a function of cell size, versus side scatter (SS), as a function of cellular granularity. The upper elipse represents live cells by these criterion and the lower elipse in each dot plot represents the dead cells.
Gating is a tool provided by Cell Quest software and allows for the analysis of a certain population of cells. Gating around both the live and dead cell populations gave a percent of the cell numbers that was in each population. After the gates were drawn, a percent value of dead cells was calculated by taking the number of dead cells divided by the number of total cells and multiplying by one hundred.
Referring to FIGS. 29 and 30, RD cells (rhabdomyosarcoma cells-not drug resistant), cultured as described above under “Materials and Methods” were untreated or treated with etomoxir, with 2-deoxy-D-glucose, or with a combination of etomoxir and 2-deoxy-D-glucose, at concentrations indicated in FIG. 29 for 24 hours. Cells were harvested and analyzed by flow cytometry.
Referring to FIGS. 33 and 34, RD cells, cultured as described in Example 22, were untreated or treated with etomoxir, with 2-deoxy-D-glucose, or with a combination of etomoxir and 2-deoxy-D-glucose, at concentrations indicated in FIG. 33 for 48 hours. Cells were harvested and analyzed by flow cytometry.
Referring to FIGS. 37 and 38, RD cells, cultured as described in Example 22, were treated with anti-UCP2 antibody and otherwise untreated or treated simultaneously with etomoxir, 2-deoxy-D-glucose, or both, at concentrations indicated in FIG. 37 for 48 hours. Cells were harvested and analyzed by flow cytometry.
The subject of assay [3] is B16F1 melanoma cells. The experiment in a line: cell surface Fas (CD95) expression on B16F1 melanoma cells. To be noted: 48 hours. It is filed as cell-based, mouse. The procedure:
(§1) Cell Surface Staining. Non-permeabilized cells were stained with antibodies to the cell surface receptors Fas (CD95) (Pharmingen) or with antibodies to uncoupling proteins (anti-UCP2 antibody) (Alpha Diagnostic International). Antibodies for both the isotype control and actual stain were added to the cell suspension, mixed, and then placed on ice for and incubation of 25 minutes in the dark. Subsequently the cells were centrifuged at 300×g for 5 minutes and the supernatant removed. The cells were washed one time with 100 μL of PBS/2.5% FBS and then transferred into flow cyotmetric tubes containing 500 μL of PBS/2.5% FBS for analysis.
B16F1 melanoma cells were cultured at a concentration of 0.5 to 1 million cells per ml. Cells were harvested and analyzed by flow cytometry. Dot plots are shown in FIG. 15 as functions of live versus dead cells. Each dot on the dot plot represents one cell. Five thousand cells were assessed for forward scatter (FS), as a function of cell size, versus side scatter (SS), as a function of cellular granularity. […]
Referring to FIGS. 17 and 18, B16F1 melanoma cells of Example 12 were untreated or treated with etomoxir at the indicated concentrations for 48 hours. Cells were harvested, stained with fluorochrome conjugated anti-Fas antibody (Pharmingen) and analyzed by flow cytometry.

Assay [4] relates to drug resistant L1210/DDP cells. Briefly: cell-surface Fas expression by flow cytometry, L1210/DDP. The assay is classed as cell-based. The procedure:
as §1
Geometric Mean Fluorescence. When analyzing data on Cell Quest software, a geometric mean value will be given for each histogram plotted. Once the stained sample was plotted against the control (isotype or unstained), geometric mean fluorescence values were obtained for both histogram peaks. The stained control sample value was subtracted from sample to identify the actual fluorescence of the stained sample over that of the control.
Drug sensitive L1210 cells and drug resistant L1210/DDP cells were cultured with etomoxir for 24 hours (Tx indicates treatment with etomoxir). The level of cell-surface Fas was determined using fluorochrome conjugated anti-Fas antibodies and flow cytometry. The Fas levels are measured relative to a control for staining artifacts. […]

In the case of `CCOC(=O)C1(CCCCCCOc2ccc(Cl)cc2)CO1` (centres unmarked) [etomoxir, 2-(6-(4-chlorophenoxy)-hexyl)-oxirane-2-carboxylic acid ethyl ester], the tumor volume in assay [1] (Day 7, daily IP from one week after implantation) was found to be 36 mm^3; in assay [1] (Day 9, daily IP), 71.73 mm^3; in assay [1] (Day 15, daily IP) it was 261.35 mm^3; in assay [1] (Day 21, daily IP), 895.09 mm^3. Moreover, the “effect on tumor growth” value in assay [1] (HL60 MDR in nude mice, 21 day period, single agent) is “increase in tumor growth”. Also, the “percent of cell deaths” value in assay [2] (RD cells after 24 hours) amounted to 57%; in assay [2] (RD cells after 48 hours), 64%. For the same compound, the “cell surface Fas expression” value in assay [3] (B16F1 dead cell population, FIG. 18) was “dose dependent increase in cell surface Fas expression”; in assay [3] (B16F1 live cell population, FIG. 17), “dose dependent increase in cell surface Fas expression”. Also, the “cell-surface Fas expression” value in assay [4] (L1210/DDP, cultured with etomoxir for 24 hours) was “significant increases in cell surface Fas”. Moreover, the “cell surface Fas, combination with methotrexate” value in assay [4] (methotrexate-treated L1210 DDP, FIG. 8) is “promotes increases in cell surface Fas”.

The record behind these values is patent US8293240B2, “Method of treating drug-resistant cancer” (The Regents of the University of Colorado, priority 2004, dated 2012).
